{"source": "patent EP2522329A1", "about": "“Use of resveratrol and arbutin” (DSM IP Assets B.V., priority 2011, dated 2012)", "system": "POMC", "assay": "Gene modulation in normal human epidermal melanocytes (NHEM), RT-qPCR PCR array of mRNA expression", "assay_type": "cell-based", "settings": "Melanocyte, 72 h", "protocol": "Normal human epidermal melanocytes were cultivated for 24 hours. […] Cells were cultivated for additional 72 hours. All experimental conditions were performed in triplicate.\nAt the end of the cultivation, the cells were harvested and washed with phosphate buffered saline (PBS) solution and immediately frozen at -80 °C. The expression of selected markers was analyzed using RT-qPCR method on mRNA extracted from cells layer for each treatment condition. The differential expression analysis was performed by PCR arrays of the screening format \"mQPA H-Melanocyte-64\", which focuses on 64 genes selected for their importance in pigmentation and melanocyte biology.\nTotal RNA was extracted from each sample using TRI-Reagent®. The amount and quality of the RNA was evaluated using a lab-on-a-chip Bioanalyzer (Agilent technologies). Potential contaminants traces of DNA were removed […] The incorporation of fluorescence in amplified DNA was measured continuously during the PCR cycles. […] The value selected for RE calculations is the \"output point\" (Ct) of the fluorescence curve. For a given marker, the highest is the cycle number; the lowest, is the mRNA quantity. The RE value is expressed in arbitrary units (AU) according to the equation: (((1)/(2)))^NC x 10^6 Where NC is the number of cycles. [formula]", "note": "Where two headings read alike, the source gives them in different places."}
{"compound": "Oc1ccc(C=Cc2cc(O)cc(O)c2)cc1", "note": "[Resveratrol, 3,4',5 trihydroxystilbene]", "values": [{"measurement": "activation at 5 µg/mL", "setting": "read-out: POMC expression ratio compared to control", "value": 5, "unit": "%"}, {"measurement": "activation at 5 µg/mL", "setting": "read-out: modulation of expression of the gene POMC when compared to untreated cells", "value": 5, "unit": "%"}]}
